The structures appear in SMILES notation.

What all share (type): cell-based
For experiment [1], the system named is BSBL Escherichia coli P956. Put plainly: Microplate microdilution growth inhibition (PIC, MIC, FIC-index). On the procedure:
(§1) The six strains tested in this study are purified clinical isolates identified in the bacteriology laboratory of the Hassan II university teaching hospital center (CHU, Fes, Morocco). Three of the six bacterial strains tested are strains of BSBL Escherichia coli (P956, P933 and P7847) and the other three bacterial strains tested are strains of BSBL Klebsiella pneumoniae (H1878, H2001 and H1893).
(§2) For each test performed, precultures of the bacterial strains (frozen beforehand at −20° C.) for 24 h at 37° C. were prepared. From these precultures, bacterial inocula containing 2×10^7 CFU (colony-forming units)/ml were prepared, adjusting the optical density to 540 nm.
(§3) Amoxicillin (AMX) and cineole were supplied by Sigma Aldrich (France). A stock solution of AMX (400 μg/ml) was prepared after dissolving 40 mg of antibiotic in 100 ml of sterile distilled water. From this stock solution, serial dilutions were performed. The cineole concentrations used were prepared by emulsifying pure cineole in 0.2% (v/v) of agar-agar according to the method described by Remmal A et al. (J. Essent. Oil. Res [Book], 1993, 5: pages 1179-1184).
(§4) The partial inhibitory concentrations (PIC) are the concentrations of antibacterial agents which inhibit the growth of a given percentage (90%, 75%, 50%, 40% . . . ) of the bacterial population studied. The PICs of AMX and cineole with respect to the six bacterial strains used were determined via a microplate microdilution technique based on the monitoring of the bacterial growth by measuring the optical density (Casey J. T. et al., J. Microbiol. Meth [Book], 2004, 58: pages 327-334; Patton T et al., J. Microbiol. Meth [Book], 2006, 64: pages 84-95).
(§5) 96-well U-shaped sterile microplates with a capacity of 200 μl were used. For each microplate, two control rows were prepared: • A row containing 200 μl of the MH liquid medium (sterility control and negative control). • A row containing 150 μl of the MH liquid medium and 50 μl of the bacterial inoculum at 2×10^7 CFU/ml (positive control).
(§6) For AMX and cineole, two rows were prepared containing 100 μl of MH liquid medium, 50 μl of the bacteria inoculum at 2×10^7 CFU/ml and 50 μl of decreasing concentrations of antimicrobial agents. The AMX concentrations used are: 50-25-12.5-6.25-3.1-1.6-0.8-0.4-0.20-0.10-0.05-0.025 μg/ml. The cineole concentrations used are: 100-50-25-12.5-6.25-3.1-1.6-0.8-0.4-0.20-0.10-0.05 μl/ml. The optical densities (OD) were determined at 540 nm using a microplate spectrophotometer (Versamax, Molecular Devices, USA). The OD was measured at time t=0 and after 22 hours of incubation at 30° C. The percentage of inhibition of the antimicrobial agents with respect to each of the six strains was calculated according to Casey J. T. et al. (J. Microbiol. Meth. [Book], 2004, 58: pages 327-334) according to the following formula:
(§7) With ODT0=OD of the test well at time t=0, ODT22=OD of the test well after 22 h of incubation, ODC0=OD of the positive control well at time t=0, ODC22=OD of the positive control well after 22 h of incubation.
(§8) After having determined the PICs of AMX and cineole alone, the antibacterial power of the combination of AMX and cineole was evaluated. The same technique of microplate microdilution was used. The AMX-cineole combinations were prepared in sterile tubes as follows: • AMX 50% PIC+cineole 40% PIC • AMX 50% PIC+cineole 30% PIC • AMX 50% PIC+cineole 20% PIC • AMX 25% PIC+cineole 40% PIC • AMX 25% PIC+cineole 30% PIC • AMX 25% PIC+cineole 20% PIC.
(§9) The fractional inhibitory concentration index (FIC-index) expressing the degree of synergism of the AMX-cineole combination was calculated according to the following formula (Odds F. C. et al., J. Antimicrob. Chemoth. [Book], 2003, 52: page 1).
(§10) The AMX-cineole combination is considered: • Synergistic when the FIC-index is ≤0.5 • Additive when 0.5<FIC-index <1 • Indifferent when 1<FIC-index <2 • Antagonistic when FIC-index >2. Results
For orientation: Dilution methods test growth across graded concentrations, often in twofold steps.

Experiment [2] has as its system BSBL Klebsiella pneumoniae H1893. The experiment is described as above. On the procedure: as §1, §2, §3, §4, §5, §6, §7, §8, §9, §10
Experiment [3] concerns BSBL Escherichia coli P933. The experiment is described as above. As to the method:
as §1, §2, §3, §4, §5, §6, §7, §8, §9, §10

Experiment [4] deals with BSBL Klebsiella pneumoniae H2001. The experiment is described as above. On the procedure: as §1, §2, §3, §4, §5, §6, §7, §8, §9, §10
The test system of experiment [5] is BSBL Escherichia coli P7847. The description is as above. As to the method:
as §1, §2, §3, §4, §5, §6, §7, §8, §9, §10

Experiment [6] concerns BSBL Klebsiella pneumoniae H1878. The experiment is described as above. As to the method: as §1, §2, §3, §4, §5, §6, §7, §8, §9, §10
Experiment [7] has as its system three strains of BSBL Escherichia coli and three strains of BSBL Klebsiella pneumoniae. Put plainly: Microplate microdilution, statements over all six strains tested. On the procedure:
as §1, §2, §3, §4
96-well U-shaped sterile microplates with a capacity of 200 μl were used. […]
as §6, with “The AMX concentrations used are: 50-25-12.5-6.25-3.1-1.6-0.8-0.4-0.20-0.10-0.05-0.025 μg/ml. The cineole concentrations used are: 100-50-25-12.5-6.25-3.1-1.6-0.8-0.4-0.20-0.10-0.05 μl/ml.” left out, “formula: […]” for “formula:”
After having determined the PICs of AMX and cineole alone, the antibacterial power of the combination of AMX and cineole was evaluated. […]
The fractional inhibitory concentration index (FIC-index) expressing the degree of synergism of the AMX-cineole combination was calculated according to the following formula (Odds F. C. et al., J. Antimicrob. Chemoth. [Book], 2003, 52: page 1). […]

[8] abbreviates: cineole alone, Escherichia coli P956.
Where [9] appears, read: cineole alone, Klebsiella pneumoniae H1893.
The mark [10] stands for this setting: cineole alone, Escherichia coli P933.
Setting [11] is: cineole alone, Klebsiella pneumoniae H2001.
Setting [12] is: cineole alone, Escherichia coli P7847.
The mark [13] stands for this setting: cineole alone, Klebsiella pneumoniae H1878.

Regarding `CC12CCC(CC1)C(C)(C)O2` [cineole, 1,8-cineole], the “100% MIC Alone (cineole, second figure of the cell)” value in experiment [1] (E. coli P956), in experiment [2] (K. pneumoniae 111893), in experiment [3] (E. coli P933), in experiment [4] (K. pneumoniae 112001), in experiment [5] (E. coli P7847) and in experiment [6] (K. pneumoniae 111878) was 100 μl/ml throughout. Besides, the “20% PIC” value in experiment [1] (setting [8]) was found to be 1.2 ± 0.16 μl/ml; in experiment [2] (setting [9]), 0.6 ± 0.12 μl/ml; in experiment [3] (setting [10]), 1.3 ± 0.24 μl/ml; in experiment [4] (setting [11]) it was 0.7 ± 0.09 μl/ml; in experiment [5] (setting [12]), 1.2 ± 0.11 μl/ml; in experiment [6] (setting [13]) it was 0.4 ± 0.12 μl/ml. The “30% PIC” value in experiment [1] (setting [8]) is 2.6 ± 0.12 μl/ml; in experiment [2] (setting [9]), 2.7 ± 0.09 μl/ml; in experiment [3] (setting [10]), 2.3 ± 0.09 μl/ml; in experiment [4] (setting [11]), 3.1 ± 0.10 μl/ml; in experiment [5] (setting [12]), 2.7 ± 0.12 μl/ml; in experiment [6] (setting [13]) it was 2.9 ± 0.12 μl/ml. Also, the “40% PIC” value in experiment [1] (setting [8]) is 6.2 ± 0.20 μl/ml; in experiment [2] (setting [9]), 6.8 ± 0.09 μl/ml; in experiment [3] (setting [10]), 6.8 ± 0.14 μl/ml; in experiment [4] (setting [11]), 6.9 ± 0.12 μl/ml; in experiment [5] (setting [12]) it was 6.5 ± 0.10 μl/ml; in experiment [6] (setting [13]) it was 7.1 ± 0.12 μl/ml. Further, the “40% PIC of cineole” value in experiment [7] (span over all strains tested) is 6.2-7.1 μl/ml. In experiment [7] (three strains of E. coli and three strains of K. pneumoniae), the MICs of cineole is reported as about 100 μl/ml.

Take `CC1(C)S[C@@H]2[C@H](NC(=O)[C@H](N)c3ccc(O)cc3)C(=O)N2[C@H]1C(=O)O` [amoxicillin, Amoxicillin]: the MIC in experiment [1] (Escherichia coli, E. coli P956, read-out: 100% MIC Alone (amoxicillin, first figure of the cell)) is 50 µg/mL; in experiment [2] (Klebsiella pneumoniae, K. pneumoniae 111893, read-out: 100% MIC Alone (amoxicillin, first figure of the cell)), 50 µg/mL; in experiment [3] (Escherichia coli, E. coli P933, read-out: 100% MIC Alone (amoxicillin, first figure of the cell)), 50 µg/mL; in experiment [4] (Klebsiella pneumoniae, K. pneumoniae 112001, read-out: 100% MIC Alone (amoxicillin, first figure of the cell)), 50 µg/mL; in experiment [5] (Escherichia coli, E. coli P7847, read-out: 100% MIC Alone (amoxicillin, first figure of the cell)), 50 µg/mL; in experiment [6] (Klebsiella pneumoniae, K. pneumoniae 111878, read-out: 100% MIC Alone (amoxicillin, first figure of the cell)), 50 µg/mL. Moreover, the MIC in experiment [7] (three strains of E. coli and three strains of K. pneumoniae, read-out: minimum inhibitory concentrations (MIC, 100% inhibition) of AMX) was about 50 µg/mL. For the same compound, the “25% PIC” value in experiment [1] (amoxicillin alone, Escherichia coli P956) is 0.7 ± 0.14 µg/mL; in experiment [2] (amoxicillin alone, Klebsiella pneumoniae H1893) it was 0.8 ± 0.12 µg/mL; in experiment [3] (amoxicillin alone, Escherichia coli P933) it was 0.5 ± 0.10 µg/mL; in experiment [4] (amoxicillin alone, Klebsiella pneumoniae H2001), 0.6 ± 0.14 µg/mL; in experiment [5] (amoxicillin alone, Escherichia coli P7847) it was 0.8 ± 0.17 µg/mL; in experiment [6] (amoxicillin alone, Klebsiella pneumoniae H1878), 0.9 ± 0.09 µg/mL. Moreover, the IC50 in experiment [1] (amoxicillin alone, Escherichia coli P956, read-out: 50% PIC) worked out at 1.1 ± 0.25 µg/mL; in experiment [2] (amoxicillin alone, Klebsiella pneumoniae H1893, read-out: 50% PIC), 1.7 ± 0.09 µg/mL; in experiment [3] (amoxicillin alone, Escherichia coli P933, read-out: 50% PIC), 1.3 ± 0.24 µg/mL; in experiment [4] (amoxicillin alone, Klebsiella pneumoniae H2001, read-out: 50% PIC) it was 1.3 ± 0.12 µg/mL; in experiment [5] (amoxicillin alone, Escherichia coli P7847, read-out: 50% PIC), 1.5 ± 0.13 µg/mL; in experiment [6] (amoxicillin alone, Klebsiella pneumoniae H1878, read-out: 50% PIC), 1.6 ± 0.17 µg/mL. In experiment [7] (span over all strains tested, read-out: 50% PIC of AMX), the IC50 fell in the range of 1.1 to 1.7 µg/mL.

These data come from patent publication US11872216B2, “Pharmaceutical formulation comprising cineole and amoxicillin” (priority 2016, dated 2024).
